Laboratory results published in patent US10828316B2, “Method of treating bacterial infections” (priority 2016, dated 2020).
≈ marks a conversion by molar mass, not a printed value.

Experiments:
[1] = test system: K. pneumoniae EN0262; details: commercial antibiotics, data provided by IMBIM, BMC, Uppsala University; cited from earlier work
[2] = test system: S. flexneri APV00906; experiment: MIC; type: cell-based; details: S. flexneri APV00906; for MIC: Shigella flexneri, read-out: Antibiogram MIC
[3] = test system: S. sonnei APV00908; experiment: MIC; type: cell-based; details: S. sonnei APV00908; for MIC: Shigella sonnei, read-out: Antibiogram MIC
[4] = test system: S. flexneri APV00907; experiment: MIC; type: cell-based; details: S. flexneri APV00907; for MIC: Shigella flexneri, read-out: Antibiogram MIC
[5] = test system: E. coli; details: Ciprofloxacin 14 mg/kg; single mice

Row | Compound | MIC [1] [µg/mL] | MIC [2] [µg/mL] | MIC [3] [µg/mL] | MIC [4] [µg/mL] | score at sampling [5] | Antibiogram category (S, I, R, R*) [2] | Antibiogram category (S, I, R, R*) [3] | Antibiogram category (S, I, R, R*) [4]
1 | CC1(C)S[C@@H]2[C@H](NC(=O)[C@H](N)c3ccccc3)C(=O)N2[C@H]1C(=O)O [ampicillin] | >128 | – | – | – | – | – | – | –
2 | O=C(O)c1cn(C2CC2)c2cc(N3CCNCC3)c(F)cc2c1=O [ciprofloxacin] | >2 | ≤ 0.25 | ≤ 0.5 | ≤ 0.5 | 0 | – | – | –
3 | C[C@@H](O)[C@H]1C(=O)N2C(C(=O)O)=C(SCCN=CN)C[C@H]12 [imipenem] | – | ≤ 0.25 | ≤ 0.25 | ≤ 0.25 | – | – | – | –
4 | CCN1CCN(C(=O)N[C@@H](C(=O)N[C@@H]2C(=O)N3[C@@H]2SC(C)(C)[C@@H]3C(=O)O)c2ccccc2)C(=O)C1=O [piperacillin] | >256 | – | – | – | – | – | – | –
5 | CN(C)c1cc(NC(=O)CNC(C)(C)C)c(O)c2c1C[C@H]1C[C@H]3[C@H](N(C)C)C(O)=C(C(N)=O)C(=O)[C@@]3(O)C(O)=C1C2=O [tigecycline] | 2 (≈ 3.41 µM) | ≤ 0.5 | ≤ 0.5 | ≤ 0.5 | – | – | – | –
6 | C[C@@H](O)[C@H]1C(=O)N2C(C(=O)O)=C(S[C@@H]3CN[C@H](C(=O)Nc4cccc(C(=O)O)c4)C3)[C@H](C)[C@H]12 [Ertapenem] | – | ≤ 0.5 | ≤ 0.5 | ≤ 0.5 | – | – | – | –
7 | NCC[C@H](O)C(=O)N[C@@H]1C[C@H](N)[C@@H](O[C@H]2O[C@H](CN)[C@@H](O)[C@H](O)[C@H]2O)[C@H](O)[C@H]1O[C@H]1O[C@H](CO)[C@@H](O)[C@H](N)[C@H]1O [amikacin] | 8 (≈ 13.7 µM) | 16 (≈ 27.3 µM) | 4 (≈ 6.83 µM) | 4 (≈ 6.83 µM) | – | R* | R* | R*
8 | perfloxacin | >16 | – | – | – | – | – | – | –
9 | C[C@H]1[C@H](NC(=O)/C(=N\OC(C)(C)C(=O)O)c2csc(N)n2)C(=O)N1S(=O)(=O)O [aztreonam] | >16 | – | – | – | – | – | – | –
